Data reported in patent US8026359B2, “Fungicidal heterocyclic amines” (E.I. du Pont de Nemours and Company, priority 2007, dated 2011).

What was measured:
Type in all cases: in vivo
[1] = system: Erysiphe graminis f. sp. tritici; assay: Test A: wheat powdery mildew, preventive spray on wheat seedlings; conditions: 200 ppm, 100 = 100% disease control, 0 = no control relative to controls; for pest or weed control at 200 ppm: Blumeria graminis, 192 h, read-out: Test A disease control rating
In short: (§1)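 Compounds dissolved in acetone (3% of final volume), then suspended in 50/50 acetone/purified water with 250 ppm Trem® 014 surfactant. Sprayed to run-off on seedlings as a 200 ppm (equivalent to 500 g/ha) or 40 ppm suspension, preventively.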

[2] = system: Puccinia recondita f. sp. tritici; assay: Test B: wheat leaf rust, preventive spray on wheat seedlings; conditions: 200 ppm, 100 = 100% disease control, 0 = no control relative to controls; for pest or weed control at 200 ppm: Puccinia recondita, 192 h, read-out: Test B disease control rating
In short: as §1

Septoria nodorum = assay: Test C: wheat glume blotch, preventive spray on wheat seedlings; conditions: 200 ppm, 100 = 100% disease control, 0 = no control relative to controls; for pest or weed control at 200 ppm: Parastagonospora nodorum, 216 h, read-out: Test C disease control rating
In short: as §1

Septoria tritici = assay: Test D: wheat leaf blotch, preventive spray on wheat seedlings; conditions: 200 ppm, 100 = 100% disease control, 0 = no control relative to controls; for pest or weed control at 200 ppm: Zymoseptoria tritici, 504 h, read-out: Test D disease control rating
In short: as §1

Fusarium graminearum = assay: whole plant or invertebrate; conditions: for Test E disease control rating: 200 ppm, 100 = 100% disease control, 0 = no control relative to controls; for pest or weed control at 200 ppm: Fusarium graminearum, in Triticum aestivum, 192 h, read-out: Test E disease control rating
Botrytis cinerea = assay: Test F: tomato Botrytis, preventive spray on tomato seedlings; conditions: 200 ppm, 100 = 100% disease control, 0 = no control relative to controls; for pest or weed control at 200 ppm: Botrytis cinerea, 120 h, read-out: Test F disease control rating
In short: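 Compounds dissolved in acetone (3% of final volume), suspended in 50/50 acetone/water with 250 ppm Trem® 014. Sprayed preventively to run-off on tomato seedlings at 200 ppm (500 g/ha) or 40 ppm.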

[3] = system: Colletotrichum orbiculare; assay: Test I: cucumber Colletotrichum anthracnose, preventive spray on cucumber seedlings; conditions: 100 = 100% disease control, 0 = no control relative to controls; for Test I disease control rating: 200 ppm; for pest or weed control at 200 ppm: Colletotrichum orbiculare, 144 h, read-out: Test I disease control rating
In short: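 Compound was dissolved in acetone (3% of final volume), then suspended in 50/50 acetone/water with 250 ppm Trem 014 surfactant. Cucumber seedlings were sprayed to run-off as a preventive treatment at 200 ppm (equivalent to 500 g/ha) or 40 ppm.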

Uncinula necator = assay: Test N: grape powdery mildew, preventive spray on grape seedlings; conditions: 100 ppm (100 g/ha, 1000 L/ha), inoculated the following day, 100 = 100% disease control, 0 = no control relative to controls
Text: (§2) General protocol for preparing test suspensions for Tests A-R: The test compounds were first dissolved in acetone in an amount equal to 3% of the final volume and then suspended at the desired concentration (in ppm) in acetone and purified water (50/50 mix) containing 250 ppm of the surfactant Trem® 014 (polyhydric alcohol esters). The resulting test suspensions were then used in tests A-R. In Tests A-M, compounds were sprayed as a 200 ppm test suspension (equivalent to a rate of 500 g/ha) or as a 40 ppm test suspension to the point of runoff on the test plants. In Tests N-R, compounds were sprayed as a 100 g/ha test suspension (equivalent to a rate of 100 ppm) on the test plants at an application volume of 1000 L/ha. The test suspension was sprayed on grape seedlings.

Plasmopara viticola [4] = assay: Test R: grape downy mildew, preventive spray on grape seedlings; conditions: 100 ppm (100 g/ha, 1000 L/ha), inoculated the following day, 100 = 100% disease control, 0 = no control relative to controls
Text: as §2, with “seedlings. The following day the seedlings were inoculated with a spore suspension of Plasmopara viticola (the causal agent of grape downy mildew) and incubated in a saturated atmosphere at 20° C. for 24 h, then moved to a growth chamber at 20° C. for 7 days, after which time the test units were placed back into a saturated atmosphere at 20° C. for 24 h. Upon removal, disease ratings were made.” for “seedlings.”

Venturia inaequalis = assay: Test O: apple scab, preventive spray on apple seedlings; conditions: 100 ppm (100 g/ha, 1000 L/ha), inoculated the following day, 100 = 100% disease control, 0 = no control relative to controls
Text: as §2, with “apple” for “grape”

Rhizoctonia oryzae = assay: Test J: turf brown patch, preventive spray on creeping bent grass seedlings; conditions: 200 ppm; 100 = 100% disease control, 0 = no control relative to controls
Text: General protocol for preparing test suspensions for Tests A-R: The test compounds were first dissolved in acetone in an amount equal to 3% of the final volume and then suspended at the desired concentration (in ppm) in acetone and purified water (50/50 mix) containing 250 ppm of the surfactant Trem® 014 (polyhydric alcohol esters). The resulting test suspensions were then used in tests A-R. In Tests A-M, compounds were sprayed as a 200 ppm test suspension (equivalent to a rate of 500 g/ha) or as a 40 ppm test suspension to the point of runoff on the test plants. In Tests N-R, compounds were sprayed as a 100 g/ha test suspension (equivalent to a rate of 100 ppm) on the test plants at an application volume of 1000 L/ha. The test suspension was sprayed to the point of run-off on creeping bent grass seedlings.

Phytophthora infestans = conditions: 200 ppm; 100 = 100% disease control, 0 = no control relative to controls
Plasmopara viticola [5] = assay: Test L: grape downy mildew, spray after inoculation of grape seedlings; conditions: 200 ppm; 100 = 100% disease control, 0 = no control relative to controls
Text: General protocol for preparing test suspensions for Tests A-R: The test compounds were first dissolved in acetone in an amount equal to 3% of the final volume and then suspended at the desired concentration (in ppm) in acetone and purified water (50/50 mix) containing 250 ppm of the surfactant Trem® 014 (polyhydric alcohol esters). The resulting test suspensions were then used in tests A-R. In Tests A-M, compounds were sprayed as a 200 ppm test suspension (equivalent to a rate of 500 g/ha) or as a 40 ppm test suspension to the point of runoff on the test plants. In Tests N-R, compounds were sprayed as a 100 g/ha test suspension (equivalent to a rate of 100 ppm) on the test plants at an application volume of 1000 L/ha. Grape seedlings were inoculated with a spore suspension of Plasmopara viticola (the causal agent of grape downy mildew) and incubated in a saturated atmosphere at 20° C. for 24 h. After a short drying period, the test suspension was sprayed to the point of run-off on the grape seedlings and then moved to a growth chamber at 20° C. for 6 days, after which time the test units were placed back into a saturated atmosphere at 20° C. for 24 h. Upon removal, disease ratings were made.

Pythium aphanidermatum = assay: Test M: bluegrass pythium blight, preventive spray on bluegrass seedlings; conditions: 200 ppm; 100 = 100% disease control, 0 = no control relative to controls
Text: as §2, with “was sprayed to the point of run-off on bluegrass” for “was sprayed on grape”, “run-off on bluegrass seedlings.” for “sprayed on grape seedlings.”

Cc1cc(C)c(Nc2cc(-c3ccnc(NC4CCOCC4)n3)ccn2)c(Cl)c1 [Compound 90]
Test A disease control rating [1]: 98% | Test B disease control rating [2]: 99% | Test C disease control rating (Septoria nodorum): 100% | Test D disease control rating (Septoria tritici): 47% | Test E disease control rating (Fusarium graminearum): 100% | Test F disease control rating (Botrytis cinerea): 99% | Test I disease control rating [3]: 93% | Test N disease control rating (Uncinula necator): 98% | Test R disease control rating (Plasmopara viticola [4]): 98%

COCC(C)Nc1nccc(-c2ncnc(Nc3cccc(Cl)c3)n2)n1 (stereo not shown) [Compound 1, N-(3-chlorophenyl)-4-[2-[(2-methoxy-1-methylethyl)amino]-4-pyrimidinyl]-1,3,5-triazine-2-amine]
pest or weed control at 200 ppm [1]: 76% | pest or weed control at 200 ppm [2]: 96% | pest or weed control at 200 ppm (Septoria nodorum): 100% | pest or weed control at 200 ppm (Septoria tritici): 0% | pest or weed control at 200 ppm (Fusarium graminearum): 98% | pest or weed control at 200 ppm (Botrytis cinerea): 98% | pest or weed control at 200 ppm [3]: 99% | Test N disease control rating (Uncinula necator): 90% | Test O disease control rating (Venturia inaequalis): 78% | Test R disease control rating (Plasmopara viticola [4]): 26%

COCC(C)Nc1cc(-c2ccnc(Nc3cccc(F)c3)n2)ncn1 (stereo not shown) [Compound 106, N^2-(3-fluorophenyl)-N^6′-(2-methoxy-1-methylethyl) [4,4′-bipyrimidine]-2,6′-diamine]
pest or weed control at 200 ppm [1]: 24% | pest or weed control at 200 ppm [2]: 94% | pest or weed control at 200 ppm (Septoria nodorum): 99% | pest or weed control at 200 ppm (Septoria tritici): 17% | pest or weed control at 200 ppm (Fusarium graminearum): 32% | pest or weed control at 200 ppm (Botrytis cinerea): 85% | pest or weed control at 200 ppm [3]: 37% | Test J disease control rating (Rhizoctonia oryzae): 0% | Test K disease control rating (Phytophthora infestans): 0% | Test L disease control rating (Plasmopara viticola [5]): 0% | Test M disease control rating (Pythium aphanidermatum): 0%

COCC(C)Nc1nccc(-c2ccnc(Nc3cccc(C#N)c3)c2)n1 (stereo not shown) [Compound 42]
Test A disease control rating [1]: 0% | Test B disease control rating [2]: 88% | Test C disease control rating (Septoria nodorum): 94% | Test D disease control rating (Septoria tritici): 9% | Test E disease control rating (Fusarium graminearum): 0% | Test F disease control rating (Botrytis cinerea): 75% | Test I disease control rating [3]: 92% | Test J disease control rating (Rhizoctonia oryzae): 0% | Test K disease control rating (Phytophthora infestans): 0% | Test L disease control rating (Plasmopara viticola [5]): 16% | Test M disease control rating (Pythium aphanidermatum): 0%

COCC(C)Nc1cc(-c2ccnc(Nc3cccc([N+](=O)[O-])c3)n2)ncn1 (stereo not shown) [Compound 107, N^6′-(2-methoxy-1-methylethyl)-N^2-(3-nitrophenyl) [4,4′-bipyrimidine]-2,6′-diamine]
pest or weed control at 200 ppm [1]: 0% | pest or weed control at 200 ppm [2]: 94% | pest or weed control at 200 ppm (Septoria nodorum): 100% | pest or weed control at 200 ppm (Septoria tritici): 8% | pest or weed control at 200 ppm (Fusarium graminearum): 89% | pest or weed control at 200 ppm (Botrytis cinerea): 28% | pest or weed control at 200 ppm [3]: 72% | Test J disease control rating (Rhizoctonia oryzae): 0% | Test K disease control rating (Phytophthora infestans): 0% | Test L disease control rating (Plasmopara viticola [5]): 0% | Test M disease control rating (Pythium aphanidermatum): 0%

COC[C@H](C)Nc1nccc(-c2ncnc(Nc3cccc([N+](=O)[O-])c3)n2)n1 [Compound 21]
Test B disease control rating [2]: 99% | Test C disease control rating (Septoria nodorum): 97% | Test D disease control rating (Septoria tritici): 13% | Test E disease control rating (Fusarium graminearum): 87% | Test F disease control rating (Botrytis cinerea): 72% | Test I disease control rating [3]: 96% | Test N disease control rating (Uncinula necator): 57% | Test O disease control rating (Venturia inaequalis): 99% | Test R disease control rating (Plasmopara viticola [4]): 79%
